“Also recorded” adds a separate entry of the source.
What was measured:
Cdk5/P35 [1] = target: Cdk5/P35 (Homo sapiens, UniProt Q00535); experiment: In vitro kinase (pad) assay of active Cdk5/P35 with histone H1 as substrate; format: biochemical; details: 0.7 μM P5
Protocol: Kinase assays were performed as previously described (Veeranna, et al., J Neurosci 18(11), 4008-4021, 1998). Briefly, 7 days in culture (7 DIC) primary rat cortical neurons were infected with P25, P35, Cdk5 wild-type, dominant negative-Cdk5 and P5 using the lentiviral gene delivery as described earlier. Cdk5 was immunoprecipitated using the polyclonal C8 antibody overnight at 4° C. and immunoglobulin isolated using Protein A sepharose beads for 2 hours at 4° C. Immunoprecipitates were washed three times with lysis buffer and then once with 1× kinase buffer containing 20 mM Tris-Cl pH 7.4, 1 mM EDTA, 1 mM EGTA, 10 mM MgCl2, 10 mM sodium fluoride and 1 mM sodium orthovanadate. Endogenous Cdks were immunoprecipitated from HEK 293 cells using their respective antibodies and treated as above. […]
In a dose-dependent kinase assay the effective inhibitory concentration of P5 for both the Cdk5/P25 and Cdk5/P35 complexes was evaluated. […]
P5, a 24 amino acid peptide derived from Cdk5 regulator p35, was modified by conjugating it with TAT PTD at the C-terminal end and with FITC (using a GGG linker) at the N-terminus to produce a fluorescent (FITC-labeled) TFP5 (SEQ ID NO: 2) peptide. In a dose-dependent kinase assay the effective inhibitory concentration of TFP5 for both the Cdk5/P25 and Cdk5/P35 complexes was evaluated. […]

cortical neurons = experiment: TUNEL assay of Aβ-induced apoptosis in cortical neurons; format: cell-based, rat; details: neurons transfected with GFP-P5, Aβ 6 h
Protocol: Primary cortical neuron cells were cultured for 5 days on glass coverslips coated with poly-L-lysine, and transfected with or without P5 using Lipofectamine 2000. After 24 hours, TUNEL staining was done according to the manufacturer's instructions. Cells were washed three times in PBS, fixed for 1 hour at room temperature in fresh 4% paraformaldehyde in PBS, and permeabilized (0.1% Triton X-100 in 0.1 sodium citrate) for 2 minutes on ice. After washing 2× with PBS, TUNEL reaction mixture (50 μl) was added and incubated in a humidified atmosphere at 37° C. for 1 hour. TUNEL staining and fluorescent images were visualized with a Zeiss LSM-510 laser-scanning confocal microscope. Images were processed and merged by Adobe Photoshop software.
To determine whether P5 inhibited neuronal apoptosis induced by Aβ, primary cortical neurons (5 days in culture (DIC)) were transfected with P5-GFP using Lipofectamine 2000. After 24 hours, cells were exposed to Aβ for 6 hours. The neurons were fixed and subjected to TUNEL staining, while P5 was visualized by (green fluorescent protein) GFP. […] The data are quantified in FIG. 5B. More than 85% of nontransfected neurons were apoptosis positive. […] Cortical neurons infected with or without P5 and treated with Aβ for 6 hours were assayed for cleaved caspase 3 by Western blot analysis (FIG. 5C). […]. […] The data are quantified in FIG. 5D.

Cdk5/P35 [2] = experiment: Kinase assay of Cdk5 immunoprecipitates from cortical neurons, infected or endogenous Cdk5/P35; format: cell-based, rat; details: E-18 rat cortical neurons co-infected with P5
Protocol: (§1) Briefly, 7 days in culture (7 DIC) primary rat cortical neurons were infected with P25, P35, Cdk5 wild-type, dominant negative-Cdk5 and P5 using the lentiviral gene delivery as described earlier. Cdk5 was immunoprecipitated using the polyclonal C8 antibody overnight at 4° C. and immunoglobulin isolated using Protein A sepharose beads for 2 hours at 4° C. Immunoprecipitates were washed three times with lysis buffer and then once with 1× kinase buffer containing 20 mM Tris-Cl pH 7.4, 1 mM EDTA, 1 mM EGTA, 10 mM MgCl2, 10 mM sodium fluoride and 1 mM sodium orthovanadate. Endogenous Cdks were immunoprecipitated from HEK 293 cells using their respective antibodies and treated as above. […] ATP with 20 μg of histone H1 as the substrate. Phosphorylation was performed in a final volume of […] incubated at 30° C. for 60 minutes, stopped by the addition of 10% SDS sample buffer and heating at 95° C. for 5 minutes. Samples were separated by SDS-PAGE, gels were stained with Coomassie, destained, dried and exposed to autoradiography. In pad assays, 25 μl aliquots of the incubation mixture were placed on a Whatman p80 paper square, washed and dried and placed in a scintillation vial for counting.

Cdk5/P35 [3] = target: T1, Cdk5/P35 (Rattus norvegicus, UniProt Q03114); experiment: as above; format: cell-based; details: cortical neurons infected only with P5, or uninfected treated with 20 μM roscovitine
T1 construct: endogenous in cells; host or cells: E-18 rat cortical neurons
Protocol: as §1

cleaved caspase-3 = experiment: Cleaved caspase-3 Western blot in Aβ-treated cortical neurons; format: cell-based, rat; details: Aβ 6 h; P5 infection or roscovitine
Protocol: Western blot analysis was performed as previously described (Zheng et al., Eur J Biochem 269(18), 4427-4434, 2002). In brief, an equal amount of total protein (20 μg/lane) was resolved on a 4-20% SDS polyacrylamide gel and blotted onto a polyvinylidene difluoride membrane. This membrane was incubated in blocking buffer containing 20 mM Tris-HCl (pH 7.4), 150 mM NaCl, and 0.1% (vol/vol) Tween 20 (TTBS) plus 5% dry milk (w/v) for 1 hour at room temperature followed by incubation overnight at 4° C. in primary antibodies (see antibodies). The membranes were then washed four times in TTBS (5 minutes/each) followed by incubation in secondary antibody (goat-antimouse or goat anti-rabbit IgG (H+L)-horseradish peroxidase (HRP) conjugate at a dilution of 1:3000) for 1 hour at room temperature. Western blots were analyzed using the Amersham Enhanced Chemiluminescence (ECL) kit following the manufacturer's instructions (GE Healthcare, Piscataway, N.J.).
To determine whether P5 inhibited neuronal apoptosis induced by Aβ, primary cortical neurons (5 days in culture (DIC)) were transfected with P5-GFP using Lipofectamine 2000. After 24 hours, cells were exposed to Aβ for 6 hours. The neurons were fixed and subjected to TUNEL staining, while P5 was visualized by (green fluorescent protein) GFP. […] The data are quantified in FIG. 5B. […] The data are quantified in FIG. 5D.

T1 sequence (Q03114 whole entry): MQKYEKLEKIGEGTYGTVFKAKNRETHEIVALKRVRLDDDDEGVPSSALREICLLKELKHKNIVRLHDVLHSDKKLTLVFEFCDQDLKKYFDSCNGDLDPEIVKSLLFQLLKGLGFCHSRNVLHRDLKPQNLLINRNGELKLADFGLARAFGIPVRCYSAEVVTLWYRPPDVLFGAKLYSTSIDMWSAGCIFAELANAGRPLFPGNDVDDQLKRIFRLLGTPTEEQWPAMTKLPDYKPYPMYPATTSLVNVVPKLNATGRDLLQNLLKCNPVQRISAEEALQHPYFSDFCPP
T1 sequence (P61810 2-307 partner): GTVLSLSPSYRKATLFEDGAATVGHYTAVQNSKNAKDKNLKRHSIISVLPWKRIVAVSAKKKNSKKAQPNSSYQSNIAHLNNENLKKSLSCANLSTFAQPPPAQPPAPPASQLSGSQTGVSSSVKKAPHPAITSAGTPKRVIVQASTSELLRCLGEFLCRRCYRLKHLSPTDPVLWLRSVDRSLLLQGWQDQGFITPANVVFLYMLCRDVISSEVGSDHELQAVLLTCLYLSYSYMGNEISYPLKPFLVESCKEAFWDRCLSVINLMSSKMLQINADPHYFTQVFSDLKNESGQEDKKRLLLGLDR
Chain of Cdk5/P35 (Homo sapiens, UniProt Q00535) (Q00535 whole entry, species assumed): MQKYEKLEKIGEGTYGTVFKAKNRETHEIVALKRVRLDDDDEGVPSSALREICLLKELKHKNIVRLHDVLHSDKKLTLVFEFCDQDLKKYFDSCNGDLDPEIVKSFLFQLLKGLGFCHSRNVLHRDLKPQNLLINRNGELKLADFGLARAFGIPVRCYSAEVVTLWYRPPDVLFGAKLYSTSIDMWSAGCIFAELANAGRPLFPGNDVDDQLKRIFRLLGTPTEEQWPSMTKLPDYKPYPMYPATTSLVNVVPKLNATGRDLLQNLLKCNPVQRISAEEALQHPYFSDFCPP

- Inhibition of Cdk5/P35 activity (Cdk5/P35 [1]): approximately 70%
- Inhibition of Cdk5 activity in neurons co-infected with Cdk5/P35 (Cdk5/P35 [2]): 10-20%
- Effect on endogenous Cdk5/P35 activity (Cdk5/P35 [3]): no reduction in activity
Substance: P5: 24 residue peptide derived from Cdk5 activator P35 (K254-A277 of SEQ ID NO: 16); Cdk5 inhibitory peptide (KEAFWDRCLSVINLMSSKMLQINA; listed as Homo sapiens)
- Aβ-induced apoptosis (TUNEL) (cortical neurons): virtually all P5 transfected cells were protected from Aβ-induced apoptosis; also recorded: clearly inhibited Aβ-mediated neuronal apoptosis
- Cleaved caspase-3 expression (cleaved caspase-3): marked reduction in cleaved caspase 3 expression; also recorded: reduced to control EV levels; also recorded: significantly rescued cortical neurons from apoptosis

From patent US8597660B2, “Therapeutic approach to neurodegenerative disorders using a TFP5-peptide” (The United States of America, as represented by the …, priority 2010, dated 2013)
